Experimental data from US7786257B2, “Signal-1/signal-2 bifunctional peptide inhibitors” (priority 2000, dated 2010).

What was measured:
[1] = test system: live APC (spleenocytes) from NOD (I-A^g7), BALB/c, A.SW, A.BY mice; assay: Flow cytometry of biotinylated peptide binding to live APC (spleenocytes) of inbred mouse strains; settings: biotinylated peptide, live spleenocytes, flow cytometry
Procedure: Specifically, it was verified that the peptide binds to MHC molecules on live APC. Briefly, spleen cell density-gradient fractions (from mice), or PBL, or APC lines (from humans) were incubated in round bottom 96-well plates with increasing concentrations of individual biotinylated peptides at 37° C., 5% CO2 for 16 hours. Following binding of the BPI to the APC, Avidin-FITC was incubated with the cells on ice for 30 minutes, followed by biotinylated anti-Avidin for 1 hour, then again with Avidin-FITC. For BPI titrations, increasing concentrations (0.1-100 μM) of the biotinylated derivatives in sterile 0.5% BSA-PBS were incubated with the APC for 16 hours as above. […] Three-color analyses used Cy-Chrome or PE-conjugated antibodies to known surface markers of APC that were commercially available. Avidin-FITC and biotinylated anti-Avidin detection of the bound peptide was as previously described in Murray et al., 24 Eur. J. Immunol. 2337-2344 (1994); Murray; 19 Immunology Today 157-163; and Schountz et al., 157 The Journal of Immunology 3893-3901 (1996). Slight modifications of this method were used to test peptide inhibition (i.e., peptide affinity) and co-capping to the MHC and ICAM molecules directly on the live APC surface. […] Unlabeled peptide was used in a competition assay to derive the relative affinity of the BPI for the APC and the ability of the BPI to crosslink the MHC and ICAM molecules on the APC was examined by cocapping ICAM with an anti-MHC mAb. Here, cells were incubated with the BPI. Next, an anti-MHC mAb was added. After 30 minutes at 37° C., the cells were transferred to ice and stained with PE-labeled anti-ICAM (FIG. 7).
To obtain biotinylated BPI, the synthesized EGAD BPI was biotinylated with NHS-Biotin as described in Murray et al., 24 Eur. J. Immunol. 2337-2344 (1994). Spleen cell density-gradient fractions from normal (unimmunized) NOD, BALB/c and other MHC congenic strains were incubated in round bottom 96-well plates with increasing concentrations of individual biotinylated peptides at 37° C., 5% CO2 for 16 hours. Following binding of the BPI to the APC, Avidin-FITC was incubated with the cells on ice for 30 minutes, followed bybiotinylated anti-Avidin for 1 hour, then again with Avidin-FITC. For BPI titrations, increasing concentrations (0.1-100 μM) of the biotinylated derivatives in sterile 0.5% BSA-PBS were incubated with the APC for 16 hours as above. Three-color analyses used Cy-Chrome or PE-conjugated anti-B220 (mAb RA3-6B2 (CD45R B-cell marker), anti-MHC class II (KH74 or 10-3.62 mAb), or anti-ICAM-1 (3E2 mAb); (all purchased from PharMingen, San Diego, Calif.). Bound peptide was detected with avidin-FITC/biotinylated anti-avidin/avidin-FITC on live cells gated by forward/side scatter analysis. Controls contained all detecting reagents in absence of the biotinylated peptide; 20,000 events were analyzed for each histogram with a FACScan (Becton-Dickinson) flow cytometer.
To verify antigenic peptide binding to live APC, initial EGAD-BPI were screened for selective binding to NOD (I-A^g7) APC and assayed for simultaneous binding using monoclonal antibodies against either MHC-II or ICAM-1 by flow cytometry methods using live APC (Murray et al., 24 Eur. J. Immunol. 2337-2344 (1994); Murray; 19 Immunology Today 157-163; and Schountz et al., 157 The Journal of Immunology 3893-3901 (1996)). In this assay, increasing concentrations of the biotinylated-BPI, -CD11a(237-247) or -GAD65(208-217) peptide were incubated overnight with spleenocytes from each inbred strain. Bound peptide was detected with amplification of avidin-FITC fluorescence by the use of a biotinylated anti-avidin reagent, followed by a second round of avidin-FITC binding. Biotinylated peptide was incubated with 10^6 viable cells at a peptide concentrations of 50 μM. Bound peptide was detected with avidin-FITC/biotinylated anti-avidin-FITC. […]

NOD mice = assay: Lymphocytic infiltration of pancreatic islets (insulitis) in NOD mice, histological scoring; assay type: in vivo, mouse; settings: NOD males; for intact / normal islets without infiltration (grade-0 islets), percentage of islets examined: GAD65 peptide in CFA, two i.v. injections of 40 nanomoles
Description: To evaluate the disease process by immunohistology (see, e.g., FIG. 12A-D), spleen, pancreas, or other target organs, e.g., the CNS for the MDP peptide BPI, or lung for the RSV peptide BPI, were removed from euthanized mice of each group and prepared for histology by fixing in neutral buffered formalin and embedding in paraffin, or snap frozen in O.C.T. medium. For scoring inflammation, minimums of five sections from each mouse were used to assess the blocking affect of a given BPI. For characterization of standard T-cell markers on cellular infiltrates, biotinylated mAb to various cell surface antigens will be incubated individually with the Cryostat sections (2 hours), followed by avidin-alkaline phosphatase (Vector laboratories). Alternatively, cell subsets will be phenotyped by standard flow cytometry methods as described in Murray et al., 24 Eur. J. Immunol. 2337-2344 (1994); Murray; 19 Immunology Today 157-163; and Schountz et al., 157 The Journal of Immunology 3893-3901 (1996). Finally, the students t-test or ANOVA will be used to estimate the statistical significance of differences observed between groups and individual mice.
These studies sought to confirm that the BPI containing the immunodominant GAD65 TCR epitope (EGAD-BPI) was biologically active in vivo and inhibited the development of pancreatic inflammation. Groups of three normal glycemic NOD males (8 weeks old) were immunized with the GAD65 (208-217) peptide in CFA as described in Example 4. The control group received PBS, and separate experimental groups received either the EGAD-BPI, the GAD peptide alone (i.e., the T-cell receptor epitope), or the CD11a peptide alone(i.e., the second signal receptor moiety) by two intravenous injections as described in Example 4. On day 10, the pancreata were removed to 10% PBS-buffered formalin, embedded in paraffin, and five-micron serial sections were examined histologically for mononuclear cell infiltration as previously described by Yoon, et al., Control of Autoimmune Diabetes in NOD Mice by GAD Expression or Suppression in β Cells, 284 Science 1183-1187 (1999), the entirety of which is hereby incorporated by reference.

Row | Sequence | preferential binding to NOD APC compared with other strains (BALB/c, A.SW, A.BY) [1] | preferential binding to NOD APC compared with other strains (BALB/c, A.SW, A.BY) ([1]; listed as LFA-1 (CD11a 237-247) peptide) | preferential binding to NOD APC compared with other strains (BALB/c, A.SW, A.BY) ([1]; listed as LFA-1 moiety) | intact / normal islets without infiltration (grade-0 islets), percentage of islets examined (NOD mice; day 10) | preferential binding to NOD APC compared with other strains (BALB/c, A.SW, A.BY) ([1]; listed as GAD 65 moiety) | mononuclear cell infiltration of islets (insulitis), in words (NOD mice; day 10, histology) | islets scored grade 2 or above (NOD mice; two i.v. injections, day 10)
1 | ITDGEATDSG (listed as Homo sapiens) [CD11a peptide, Signal-2 moiety (second signal receptor moiety) of EGAD-BPI, tested alone as control] | did not bind preferentially to NOD APC | bound similarly to all strain spleenocytes | did not display this increased binding | 66.7% |  |  | 
2 | EIAPVFVLLE (listed as Homo sapiens) [GAD65 peptide, reference compound] | did not bind preferentially to NOD APC |  |  | 62% | did not display this increased binding | showed the most insulitis | 37.5%
